Results published in patent publication US20100297194A1, “FORMULATION FOR ORAL ADMINISTRATION OF APOPTOSIS PROMOTER” (priority 2009, published 2010).
Read-outs that look alike come from different tables or passages of the source.

Experiments:
[1] = rat; 2 mg/ml solution in PEG-400/DMSO; cited from earlier work
[2] = solubility in lipid solvents (Example 1); format: physicochemical; settings: ambient conditions;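 further: solubility in mg/g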
Procedure: Solubility of ABT-263 parent (free base, crystalline Form I) and ABT-263 bis-HCl salt was tested in a variety of lipid solvents and solvent mixtures in ambient conditions. “PE-91” is Phosal 53 MCT™+ethanol, 9:1 by volume. “LOT-343” is Labrafil M 1944 CS™+oleic acid+Tween 80™, 30:40:30 by weight.
In some cases, indicated in Table 4 by an asterisk (*), solubility was initially high but precipitation occurred upon standing.

[3] = drug solubility in ternary excipient systems (Example 2); format: physicochemical; set-up: key: ✓: vehicle miscible, or drug fully dissolved in vehicle; X: vehicle immiscible or miscible but turbid, or residual solids present (due to undissolved drug or precipitation); settings: 10% salt, 20% free base, listed as ABT-263 free base
Source text: Solvents evaluated included Labrafil M 1944 CS™, Imwitor 742™ oleic acid, Capmul PG-8™, Capmul PG-12™, Lauroglycol 90™ and Phosal 53 MCT™. Surfactants evaluated included Tween™ 80, Cremophor RH40™, Gelucire 44/14™ and Labrasol™.

[4] = monkey; similar solution in PEG-400/DMSO; cited from earlier work
[5] = oral bioavailability in a rat model; settings: in vivo, in 90% phosphatidylcholine+medium chain triglycerides 53/29 and 10% ethanol

What does the source list for CC1(C)CCC(c2ccc(Cl)cc2)=C(CN2CCN(c3ccc(C(=O)NS(=O)(=O)c4ccc(N[C@H](CCN5CCOCC5)CSc5ccccc5)c(S(=O)(=O)C(F)(F)F)c4)cc3)CC2)C1 [ABT-263, N-(4-(4-((2-(4-chlorophenyl)-5,5-dimethyl-1-cyclohex-1-en-1-yl)methyl)piperazin-1-yl)benzoyl)-4-(((1R)-3-(morpholin-4-yl)-1-((phenylsulfanyl)methyl)propyl)amino)-3-((trffluoromethyl)sulfonyl)benzene-sulfonamide]?
oral bioavailability [1]: around 20%; Solubility ([2]; in Cremophor RH40): >226 mg/g; Solubility ([2]; in LOT-343 (Labrafil M 1944 CS+oleic acid+Tween 80 30:40:30 by weight)): >479 mg/g; Solubility ([2]; in Labrafil M 1944 CS, listed as ABT-263 parent): >265 mg/g; Solubility ([2]; in Labrafil M 2125 CS, listed as ABT-263 parent): >290 mg/g; Solubility ([2]; in Labrasol, listed as ABT-263 parent): >242 mg/g; Solubility ([2]; in Lipoid S75 MCT, listed as ABT-263 parent): 150 to 200 mg/g; Solubility ([2]; in Miglyol 810, listed as ABT-263 parent): <76 mg/g; Solubility ([2]; in PE-91 (Phosal 53 MCT+ethanol 9:1 by volume), listed as ABT-263 parent): >250 mg/g; Solubility ([2]; in PEG-400, listed as ABT-263 parent): >200 mg/g; Solubility ([2]; in Phosal 53 MCT): >300 mg/g; Solubility ([2]; in Tween 20, listed as ABT-263 parent): >256 mg/g; Solubility ([2]; in Tween 80, listed as ABT-263 parent): >256 mg/g; Solubility ([2]; in corn oil, listed as ABT-263 parent): <86 mg/g; Solubility ([2]; in oleic acid, listed as ABT-263 parent): >514 mg/g; Solubility ([2]; in poloxamer 124, listed as ABT-263 parent): >231 mg/g; Solubility ([2]; in sesame oil, listed as ABT-263 parent): <75 mg/g; ABT-263 solubility ([3]; ILC (Imwitor 742/Labrafil M 1944 CS/Cremophor RH40) 50:40:10 by weight): X; ABT-263 solubility ([3]; ILC (Imwitor 742/Labrafil M 1944 CS/Cremophor RH40) 60:30:10 by weight): X; ABT-263 solubility ([3]; ILL (Imwitor 742/Labrafil M 1944 CS/Labrasol) 40:40:20 by weight): X; ABT-263 solubility ([3]; ILL (Imwitor 742/Labrafil M 1944 CS/Labrasol) 50:30:20 by weight): X; ABT-263 solubility ([3]; ILL (Imwitor 742/Labrafil M 1944 CS/Labrasol) 50:40:10 by weight): X; ABT-263 solubility ([3]; ILL (Imwitor 742/Labrafil M 1944 CS/Labrasol) 60:30:10 by weight): X; ABT-263 solubility ([3]; LIT (Labrafil M 1944 CS/Imwitor 742/Tween 80) 30:40:30 by weight): X; ABT-263 solubility ([3]; LIT (Labrafil M 1944 CS/Imwitor 742/Tween 80) 40:30:30 by weight): X; ABT-263 solubility ([3]; LLL (Lauroglycol 90/Labrafil M 1944 CS/Labrasol) 50:40:10 by weight): X; ABT-263 solubility ([3]; LLL (Lauroglycol 90/Labrafil M 1944 CS/Labrasol) 60:30:10 by weight): X; oral bioavailability [4]: around 20%

Which bioavailability [5] does the source give for CN(C)CC[C@H](CSc1ccccc1)Nc1ccc(S(=O)(=O)NC(=O)c2ccc(N3CCN(Cc4ccccc4-c4ccc(Cl)cc4)CC3)cc2)cc1[N+](=O)[O-] [ABT-737, N-(4-(4-((4′-chloro-(1,1′-biphenyl)-2-yl)methyl)piperazin-1-yl)benzoyl)-4-(((1R)-3-(dimethylamino)-1-((phenylsulfanyl)methyl)propyl)amino)-3-nitrobenzenesulfonamide] here?
The bioavailability was 3.3%.
